Test results: patent publication US7632816B2, “Treatment of Alzheimer amyloid deposition” (New York University, priority 2003, dated 2009)
“Also recorded” adds a separate entry of the source. Square brackets hold non-standard residues; d marks the D form. Peptide text beside a SMILES is read from it.

Key:
[1] = mouse
[2] = In vivo toxicity test in wild type mice; conditions: 1 mg i.p. three times per week for four weeks
Description: Initial testing of Aβ12-28P toxicity in vivo was performed on five wild type C57BL6 mice which received intraperitoneal (“i.p.”) injections of 1 mg of Aβ12-28P diluted in 0.5 mL of sterile PBS three times per week for four weeks. […] Signs of toxicity included change in body weight, physical appearance, measurable clinical signs, unprovoked behavior and response to external stimuli were not noticed. After one month, the animals were sacrificed and samples were taken from the brain, liver, gut, spleen, kidney and heart, for hematoxylin and eosin staining. […] The first administration of Aβ12-28P was begun at four months of age, at which time the APP^K670N/M671L/PS1^M146L mice already have significant numbers of Aβ lesions (Wengenack et al., “Quantitative Histological Analysis of Amyloid Deposition in Alzheimer's Double Transgenic Mouse Brain,” Neurosci. 101:939-944 (2000); McGowan et al., “Amyloid Phenotype Characterization of Transgenic Mice Overexpressing Both Mutant Amyloid Precursor Protein and Mutant Presenilin 1 Transgenes,” Neurobiol. Dis. 6:231-244 (1999), which are hereby incorporated by reference in their entirety). The treatment was continued for four weeks (1 mg i.p. three times per week). Control age-matched APP^K670N/M671L/PS1^M146L mice received injections with vehicle only. There were six Aβ12-28P treated and six vehicle treated APP^K670N/M671L/PS1^M146L mice in this study.

[3] = parameters: species or system mice; conditions: mouse, in vivo
Description: Blood samples were collected at given time points. Serum was separated from plasma by centrifugation at 10,000×g for 10 minutes. The trichloroacetic (TCA) acid precipitation method was used to assess the amount of radiolabeled peptide present in the serum (Yi et al., “Amyloid β40/42 Clearance Across the Blood-brain Barrier Following Intra-ventricular Injections in Wild-type, apoE Knock-out and Human apoE3 or E4 Expressing Transgenic Mice,” J. Alz. Dis. 3:23-30 (2001); Mackic et al., “Transport Across the Blood-brain Barrier and Differential Cerebrovascular Sequestration of Circulating Alzheimer's Amyloid-β Peptide in Aged Rhesus Versus Aged Squirrel Monkeys,” Vascul. Pharmacol. 38:303-313 (2002); which are hereby incorporated by reference in their entirety). A 30% stock solution of bovine albumin (Sigma, St. Louis, Mo.) in PBS was added to serum samples to obtain a final albumin solution of 5%, which was thoroughly mixed. Serum samples were then precipitated with TCA (final concentration of TCA was 15%) and centrifugated at 25,000×g in a Beckmann TL-100 Ultracentrifuge. Radioactivity was assessed in the pellet fraction using a Beckman 4000 gamma counter. Serum level of ^125I-Aβ12-28P following intranasal peptide administration was assessed in another six wild type C57BL6J mice. Under ketamine/xylazine anesthesia 80 μg of radiolabeled peptide (in 100 μl of PBS) was administered into the nasal cavity. Ten 10 μl drops were instilled into both nostrils alternatively over five minutes. Serum samples were collected and radioactivity in TCA precipitated pellets was measured as described above. The obtained data was transformed into percentage values compared to serum radioactivity following intravenous injections at t=0 as 100%. The mean±standard deviation from all tested animals was plotted in FIG. 4 and analyzed by a one phase exponential decay nonlinear regression fit algorithm using GraphPad Prism v4.0.
At t=0, the serum level was equal to about 40% of the level achieved after administration of the same amount of peptide intravenously.

CC(=O)N[C@@H](C(=O)N[C@H](Cc1c[nH]cn1)C(=O)N[C@H](Cc1c[nH]cn1)C(=O)N[C@H](CCC(N)=O)C(=O)N[C@H](CCCCN)C(=O)N[C@H](CC(C)C)C(=O)N1CCC[C@@H]1C(=O)N[C@H](Cc1ccccc1)C(=O)N[C@H](Cc1ccccc1)C(=O)N[C@H](C)C(=O)N[C@H](CCC(=O)O)C(=O)N[C@H](CC(=O)O)C(=O)N[C@@H](C(=O)NCC(=O)N[C@H](CO)C(=O)N[C@H](CC(N)=O)C(=O)N[C@H](CCCCN)C(N)=O)C(C)C)C(C)C [Aβ12-28P] (Ac-[dV][dH][dH][dQ][dK][dL][dP][dF][dF][dA][dE][dD][dV]G[dS][dN][dK]-NH2)
BBB permeability [1]: BBB permeable
share found in the capillary depleted brain fraction ([1]; in vivo): More than 90%
survival and condition ([2]; observed two more weeks, wild type C57BL6 mice): all remained alive and well
hematoxylin and eosin histology of brain, heart, liver, gut, spleen, kidneys ([2]; wild type mice): did not reveal any pathology
signs of toxicity (body weight, physical appearance, clinical signs, unprovoked behavior, response to external stimuli) ([2]; wild type mice): No changes were noted; also recorded: not noticed
areas under the curve, intravenous versus intranasal [3]: no significant differences
half-life after a single intravenous injection [3]: 62 min
half-life ([3]; iv, half-life after a single intravenous injection): 62.2 ± 18 min
